Reference: patent US10308620B2, “Muscarinic M1 receptor positive allosteric modulators” (SUVEN LIFE SCIENCES LIMITED, priority 2015, dated 2019)
Read-outs that look alike come from different tables or passages of the source.

What was measured:
[1] = biological target: recombinant human Muscarinic M1 receptor (Homo sapiens (Human), UniProt P11229); assay: Allosteric potency EC50, CHO cells with pCRE-Luc reporter, in presence of EC20 of acetylcholine; type: cell-based; conditions: 4 hours
How it was run: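 Stable CHO cells carrying human M1 receptor and a pCRE-Luc reporter, serum-starved overnight, then exposed to rising compound concentrations plus EC20 acetylcholine in OptiMEM for 4 h at 37 °C. Luciferase read after lysis. EC50 is the concentration giving 50% luciferase stimulation with EC20 acetylcholine present.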

Male Wistar rats [2] = assay: Object recognition task model (time induced memory deficit); type: in vivo, rat; conditions: p.o.; for Exploration time mean ± S.E.M, Familiar object / Exploration time mean ± S.E.M, Novel object: choice trial 24 hours after T1
Description: Object Recognition Task Model
(§1) The cognition enhancing properties of compounds of this invention were estimated by using this model.
(§2) Male Wistar rats (8-10 weeks old) were used as experimental animals. Four animals were housed in each cage. Animals were kept on 20% food deprivation from a day prior to experimentation. Water was provided ad libitum throughout the experiment. Animals were maintained on a 12 hours light/dark cycle in temperature and humidity controlled room. The experiment was carried out in an open field made up of acrylic. Rats were habituated to individual arenas (open field) for 1 hour in the absence of any objects on day 1.
One group of 12 rats received vehicle and another set of animals received test compounds or test compounds and Donepezil, before the familiar (T1) and choice (T2) trials. During the familiarization phase, (T1), the rats were placed individually in the arena for 3 minutes, in which two identical objects (a1 and a2) were positioned 10 cm from the wall. 24 hours after T1, trial for long-term memory test was performed. The same rats were placed in the same arena as they were placed in T1 trial. During the choice phase (T2) rats were allowed to explore the arena for 3 minutes in presence of a copy of familiar object (a3) and one novel object (b). During the T1 and T2 trial, explorations of each object (defined as sniffing, licking, chewing or having moving vibrissae whilst directing the nose towards the object at a distance of less than 1 cm) were recorded using stopwatch.
(§3) T1 is the total time spent exploring the familiar objects (a1+a2).
(§4) T2 is the total time spent exploring the familiar object and novel object (a3+b). Discriminative index=Time spent with novel object/(time spent with novel and familiar object).
The object recognition test was performed as described in Behavioural Brain Research, 1988, 31, 47-59.

Male Wistar rats [3] = assay: Object recognition task model - scopolamine challenge; type: in vivo, rat; conditions: 0.3 mg/kg, p.o., with scopolamine
Description: Object Recognition Task Model—Scopolamine Challenge
as §1, §2
Rats received vehicle or vehicle and scopolamine or compound of the formula (I) and scopolamine, before the familiar (T1). During the familiarization phase, (T1), the rats were placed individually in the arena for 3 minutes, in which two identical objects (a1 and a2) were positioned 10 cm from the wall. 3 minutes after T1, trial for memory test was performed. The same rats were placed in the same arena as they were placed in T1 trial. During the choice phase (T2) rats were allowed to explore the arena for 3 minutes in presence of a copy of familiar object (a3) and one novel object (b). During the T1 and T2 trial, explorations of each object (defined as sniffing, licking, chewing or having moving vibrissae whilst directing the nose towards the object at a distance of less than 1 cm) were recorded using stopwatch.
as §3, §4

[4] = Rodent pharmacokinetic study; type: in vivo, rat; conditions: male Wistar rats; for clearance / half-life / Vd / Cmax / Tmax / bioavailability: rat, plasma; for Vd: read-out: Vz; for bioavailability: 3 mg/kg oral vs 1 mg/kg i.v.
Description: Rodent Pharmacokinetic Study
Male Wistar rats (260±50 grams) were used as experimental animals. Animals were housed individually in polypropylene cage. Two days prior to study, male Wistar rats were anesthetized with isoflurane for surgical placement of jugular vein catheter. Rats were randomly divided for oral (3 mg/kg) and intravenous (1 mg/kg) dosing (n=3/group) and fasted overnight before oral dosing (p.o.). However, rats allocated to intravenous (i.v.) dosing food and water was provided ad libitum.
At pre-determined point, blood was collected through jugular vein and replenished with an equivalent volume of normal saline. Collected blood was transferred into a labeled eppendorf tube containing 10 μL of heparin as an anticoagulant. Typically blood samples were collected at following time points: 0.08, 0.25, 0.5, 1, 2, 4, 6, 8, and 24 hours post dose. Blood was centrifuged at 4000 rpm for 10 minutes. Plasma was separated and stored frozen at −80° C. until analysis. The concentrations of the test compounds were quantified in plasma by qualified LC-MS/MS method using suitable extraction technique. The test compounds were quantified in the calibration range around 1-1000 ng/mL in plasma. Study samples were analyzed using calibration samples in the batch and quality control samples spread across the batch.
Pharmacokinetic parameters Cmax, Tmax, AUCt, T1/2, clearance, Vz and bioavailability were calculated by non-compartmental model using standard non-compartmental model by using Phoenix WinNonlin 6.0.2 or 6.0.3 version Software package.

[5] = Rodent brain penetration study; type: in vivo; conditions: rat, oral, 3 mg/kg, p.o., male Wistar rats, read-out: Single dose Rat Brain Penetration (Cb/Cp)
Description: Rodent Brain Penetration Study
Male Wistar rats (260±40 grams) were used as experimental animals. Three animals were housed in each cage. Animals were given water and food ad libitum throughout the experiment and maintained on a 12 hours light/dark cycle.
Brain penetration was determined in discrete manner in rats. One day prior to dosing day, male Wistar rats were acclimatized and randomly grouped according to their weight. At each time point (0.50, 1 and 2 hours) n=3 animals were used.
The test compounds were suitably preformulated and administered orally at (free base equivalent) 3 mg/kg. Blood samples were removed via cardiac puncture by using isoflurane anesthesia. The animals were sacrificed to collect brain tissue. Plasma was separated and brain samples were homogenized and stored frozen at −20° C. until analysis. The concentrations of the test compounds in plasma and brain were determined using LC-MS/MS method.
The test compounds were quantified in plasma and brain homogenate by qualified LC-MS/MS method using suitable extraction technique. The test compounds were quantified in the calibration range of 1-500 ng/mL in plasma and brain homogenate. Study samples were analyzed using calibration samples in the batch and quality control samples spread across the batch. Extent of brain-plasma ratio was calculated (Cb/Cp).

[6] = cited from earlier work
M1 muscarinic receptor = M1 muscarinic receptor (Homo sapiens (Human), UniProt P11229); conditions: cited from earlier work
[7] = cited from earlier work; remark: listed apart in the source
[8] = choice trial 3 minutes after T1

Chain of recombinant human Muscarinic M1 receptor (P11229 whole entry): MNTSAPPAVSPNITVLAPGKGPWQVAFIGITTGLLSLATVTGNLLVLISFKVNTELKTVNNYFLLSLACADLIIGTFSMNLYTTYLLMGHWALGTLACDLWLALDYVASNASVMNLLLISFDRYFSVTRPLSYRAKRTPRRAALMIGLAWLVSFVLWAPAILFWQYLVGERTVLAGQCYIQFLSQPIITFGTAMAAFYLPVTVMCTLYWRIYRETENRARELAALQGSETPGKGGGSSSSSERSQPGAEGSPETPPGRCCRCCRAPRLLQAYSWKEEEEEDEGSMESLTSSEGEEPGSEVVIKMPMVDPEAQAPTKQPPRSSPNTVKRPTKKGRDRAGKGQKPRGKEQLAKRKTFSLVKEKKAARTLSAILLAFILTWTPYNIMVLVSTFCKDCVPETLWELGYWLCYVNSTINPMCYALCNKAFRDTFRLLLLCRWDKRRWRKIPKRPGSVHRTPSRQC

SMILES	EC50 [1]	Inference (Male Wistar rats [2]; 1 mg/kg)	Exploration time mean ± S.E.M, Familiar object (Male Wistar rats [2]; 1 mg/kg)	Exploration time mean ± S.E.M, Novel object (Male Wistar rats [2]; 1 mg/kg)	AUC0-t ([4]; 1 mg/kg i.v. (bolus))	AUC0-t ([4]; 3 mg/kg oral (gavage))	clearance ([4]; iv, 1 mg/kg i.v. (bolus))	half-life ([4]; iv, 1 mg/kg i.v. (bolus))	Vd ([4]; iv, 1 mg/kg i.v. (bolus))	Cmax ([4]; 3 mg/kg oral (gavage))	Tmax ([4]; 3 mg/kg oral (gavage))	half-life ([4]; 3 mg/kg oral (gavage))	bioavailability [4]	Kp [5]	further results
O=C(N[C@H]1CCCC[C@@H]1O)C1=CN(Cc2ccccc2F)c2ccccc2O1 [Example 1, N-(cis-1S, 2S-2-Hydroxycyclohexyl)-4-(2-fluorobenzyl)-4H-benzo[1,4]oxazine-2-carboxamide]	422 nM	Active	10.93 ± 1.98 s	19.27 ± 2.94 s	834 ± 101 ng·h/mL	989 ± 386 ng·h/mL	19 ± 2 mL/min/kg	2.3 ± 0.7 h	4 ± 1.4 L/kg	419 ± 162 ng/mL	0.5 h	2.3 ± 1.1 h	40 ± 15%	1.18 ± 0.38	Inference (Male Wistar rats [3]): Active; Exploration time mean ± S.E.M, Familiar object (Male Wistar rats [3]; [8]): 11.57 ± 1.51 s; Exploration time mean ± S.E.M, Novel object (Male Wistar rats [3]; [8]): 22.66 ± 2.90 s
CCCCCCOc1nsnc1C1=CCCN(C)C1 [Xanomeline]															effects on cognition ([6]; clinical Alzheimer's disease trial): significant effects on cognition; gastrointestinal side effects ([6]; clinical trials): gastrointestinal side effects led to a high dropout rate
O=C(N[C@H]1CCCC[C@@H]1O)C1=CN(Cc2ccc(Cl)nc2)c2ccccc2O1 [Example 21, N-(cis-1S,2S-2-Hydroxycyclohexyl)-4-(2-chloropyridin-5-ylmethyl)-4H-benzo[1,4]oxazine-2-carboxamide]	369 nM	Active	9.18 ± 1.63 s	17.67 ± 2.89 s	1490 ± 149 ng·h/mL	4270 ± 800 ng·h/mL	11 ± 1 mL/min/kg	1.7 ± 0.3 h	1.5 ± 0.1 L/kg	992 ± 150 ng/mL	0.67 ± 0.29 h	2.7 ± 0.3 h	95 ± 18%	0.25 ± 0.08	
N#CC1(c2ccccn2)CCN(Cc2cc(C(=O)O)c(=O)n3ccccc23)CC1 [PQCA, 1-{[4-cyano-4-(pyridine-2-yl)piperidin-1-yl]methyl}-4-oxo-4H-quinolizine-3-carboxylic acid]															selectivity for M1 over the other muscarinic receptor sub types (M1 muscarinic receptor): highly selective; gastrointestinal side effects ([7]; at doses equal to or less than a fivefold margin from the minimum effective dose): no gastrointestinal side effects; efficacy in preclinical models of cognition ([7]; in vivo): efficacious
O=C(N[C@H]1CCCC[C@@H]1O)C1=CN(Cc2cccc(F)c2)c2ccccc2O1 [Example 7, N-(cis-1S, 2S-2-Hydroxycyclohexyl)-4-(3-fluorobenzyl)-4H-benzo[1,4]oxazine-2-carboxamide]	891 nM				553 ± 42 ng·h/mL	652 ± 227 ng·h/mL	29 ± 2 mL/min/kg	1.7 ± 0.3 h	4.3 ± 0.9 L/kg	313 ± 111 ng/mL	0.5 h	1.8 ± 0.3 h	39 ± 14%	1.04 ± 0.16	Inference (Male Wistar rats [2]; 3 mg/kg): Active; Exploration time mean ± S.E.M, Familiar object (Male Wistar rats [2]; 3 mg/kg): 9.23 ± 1.53 s; Exploration time mean ± S.E.M, Novel object (Male Wistar rats [2]; 3 mg/kg): 13.92 ± 1.99 s
O=C(N[C@H]1CCCC[C@@H]1O)C1=CN(Cc2ccccc2)c2ccccc2O1 [Example 4, N-(cis-1S,2S-2-Hydroxycyclohexyl)-4-benzyl-4H-benzo[1,4]oxazine-2-carboxamide]	1430 nM				415 ± 17 ng·h/mL	607 ± 62 ng·h/mL	40 ± 2 mL/min/kg	1.4 ± 0.1 h	4.7 ± 0.1 L/kg	245 ± 27 ng/mL	0.58 ± 0.38 h	1.5 ± 0.3 h	49 ± 5%	1.43 ± 0.01	Inference (Male Wistar rats [2]; 10 mg/kg): Active; Exploration time mean ± S.E.M, Familiar object (Male Wistar rats [2]; 10 mg/kg): 7.43 ± 0.67 s; Exploration time mean ± S.E.M, Novel object (Male Wistar rats [2]; 10 mg/kg): 11.21 ± 1.26 s
